Experimental data as given in patent US8778876B2, “Small-molecule inhibitors of Dengue and West Nile virus proteases” (The Board of Regents of the University of Texas System, priority 2011, dated 2014).
Structures can show the parent of a compound that is named as a salt.

What was measured:
[1] = biological target: T1, Bovine pancreatic trypsin (Bos taurus, UniProt P00760); experiment: biochemical; format: biochemical
T1 construct: purchased Sigma Aldrich; host or cells: bovine pancreas
T1 sequence (P00760 24-246): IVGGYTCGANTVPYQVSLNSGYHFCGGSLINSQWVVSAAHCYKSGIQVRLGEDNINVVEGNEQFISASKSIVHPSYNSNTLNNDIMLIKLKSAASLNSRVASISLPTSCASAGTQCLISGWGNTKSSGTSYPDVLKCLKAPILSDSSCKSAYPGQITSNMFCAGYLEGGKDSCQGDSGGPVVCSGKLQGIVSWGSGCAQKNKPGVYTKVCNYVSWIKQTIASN

[2] = biological target: T1, Bovine pancreatic trypsin; experiment: Trypsin inhibition assay with chromogenic BAPNA substrate; format: biochemical; settings: analog at 100 μM
Method: Bovine pancreatic trypsin (Sigma Aldrich, St. Louis) and N-α-Benzoyl-DL-arginine 4-nitroanilide hydrochloride (BAPNA) substrate (Sigma Aldrich, St. Louis) were used for trypsin inhibition assays. Trypsin stock solutions were prepared in sodium phosphate buffer (67 mM [pH 7.6]). Trypsin (60 μM) was incubated with chromogenic BAPNA (500 μM) and release of the para-nitroanilide product monitored using a DU640 spectrophotometer (Beckman Coulter, USA) to measure absorption at 415 nm. The slope of the progress curve was determined using linear regression and used as a baseline for comparison with inhibitor reactions.

[3] = physchem; settings: pH 9, aqueous with cosolvent or surfactant or cyclodextrin, kinetic from dmso stock
[4] = biological target: DEN2V NS2B-NS3pro (Dengue virus type 2, UniProt Q91H74); experiment: Steady-state kinetics of inhibitors of DEN2V NS2B-NS3pro (Boc-GRR-AMC substrate, Dynafit); format: biochemical, Dengue 2 virus
Sequence of DEN2V NS2B-NS3pro (Q91H74 entry or part of it, added parts left off): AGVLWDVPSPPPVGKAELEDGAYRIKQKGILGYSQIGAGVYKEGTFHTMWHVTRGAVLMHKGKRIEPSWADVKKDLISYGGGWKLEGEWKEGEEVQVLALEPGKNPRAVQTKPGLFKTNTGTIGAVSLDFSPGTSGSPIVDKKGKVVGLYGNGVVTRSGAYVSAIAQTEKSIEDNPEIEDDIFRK
Sequence of DEN2V NS2B-NS3pro (Q91H74 entry or part of it partner, added parts left off): as the sequence (Q91H74 entry or part of it, added parts left off) above

[5] = biological target: WNV NS2B-NS3pro (West Nile virus, UniProt P06935); experiment: Steady-state kinetics of inhibitors of WNV NS2B-NS3pro; format: biochemical
Sequence of WNV NS2B-NS3pro (P06935 1502-1679 limits assumed): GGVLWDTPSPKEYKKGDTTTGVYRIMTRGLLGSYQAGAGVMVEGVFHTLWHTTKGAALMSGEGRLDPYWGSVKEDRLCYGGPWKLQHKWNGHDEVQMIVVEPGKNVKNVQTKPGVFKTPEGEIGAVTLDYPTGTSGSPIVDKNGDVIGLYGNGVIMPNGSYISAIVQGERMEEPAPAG
Sequence of WNV NS2B-NS3pro (P06935 1424-1463 partner limits assumed): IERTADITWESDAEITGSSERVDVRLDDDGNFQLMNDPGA

[6] = system: cells; settings: Yip et al., 2006; cited from earlier work

| Compound | Mechanism (trypsin inhibition) [1] | Ki ([1]; Ki2 trypsin) [µM] | Inhibition of trypsin cleavage of the chromogenic substrate [2] | solubility [3] [µM] | Ki ([4]; Ki1, Table 4, ARDP0006 analogs, DEN2V NS2B-NS3pro) [µM] | Mechanism ([4]; Table 4, ARDP0006 analogs, DEN2V NS2B-NS3pro) | Ki ([5]; Ki1, Table 2, WNV NS2B-NS3pro) [µM] | Ki ([5]; Ki2, Table 2, WNV NS2B-NS3pro) [µM] | Mechanism ([5]; Table 2, WNV NS2B-NS3pro) | ED50 (cell viability reduced by 50%) [6] | Ki ([4]; Ki1, Table 1, DEN2V NS2B-NS3pro) [µM] | Ki ([4]; Ki2, Table 1, DEN2V NS2B-NS3pro) [µM] | Mechanism ([4]; Table 1, DEN2V NS2B-NS3pro, HTS-identified hits) |
| --- | --- | --- | --- | --- | --- | --- | --- | --- | --- | --- | --- | --- | --- |
| O=C1c2c(O)ccc([N+](=O)[O-])c2C(=O)c2c([N+](=O)[O-])ccc(O)c21 [ARDP0006, reference compound] | uncompetitive trypsin inhibitor | 13 | not the chromogenic substrate | > 10 | 432 ± 46 | competitive inhibition model |  |  |  |  |  |  |  |
| CCCCC(CC)CNC(=N)NC(=N)NCCCCCCNC(=N)NC(=N)NCC(CC)CCCC (stereo not shown) [MS28, Alexidine hydrochloride, reference compound] |  |  |  |  |  |  | 12 | 28 ± 5 | Mixed | low micromolar | 41 ± 3 | 84 ± 16 | Mixed |
